{"source": "paper PMC12284294", "about": "(iScience, 2025)", "key": {"FPR3": {"test_system": "FPR3", "settings": "cited from earlier work", "from_the_text": "(§1) Besides viral peptides that interact with FPR1 and FPR2, we identified a large novel group of FPR3 specific viral activators - a receptor for which very few biological relevant activators have been described yet,[53]^,[72] leaving much room for speculations about its major biological function.[1]^,[2] In contrast to FPR1 and FPR2, for which a large panel of receptor subtype-selective ligands have been described, only two biological relevant agonists with a known preference for FPR3 were identified. One is the mitochondrial-derived neuroprotective peptide Humanin[51]^,[52]^,[73] that binds to F ..."}, "FPR2": {"test_system": "FPR2", "settings": "cited from earlier work", "from_the_text": "as §1"}, "human FPR2": {"test_system": "human FPR2", "format": "cell-based", "settings": "MPR peptides 30 μM, n = 3"}, "human FPR3": {"test_system": "human FPR3", "format": "cell-based", "settings": "MPR peptides 30 μM, n = 3"}, "neutrophils": {"test_system": "neutrophils", "format": "cell-based, human"}, "FPR1": {"molecular_target": "T1, FPR1 (Homo sapiens, UniProt P21462)", "T1 construct": "expressed in transfected cells; host or cells: HEK293T", "T1 sequence (P21462 1-350)": "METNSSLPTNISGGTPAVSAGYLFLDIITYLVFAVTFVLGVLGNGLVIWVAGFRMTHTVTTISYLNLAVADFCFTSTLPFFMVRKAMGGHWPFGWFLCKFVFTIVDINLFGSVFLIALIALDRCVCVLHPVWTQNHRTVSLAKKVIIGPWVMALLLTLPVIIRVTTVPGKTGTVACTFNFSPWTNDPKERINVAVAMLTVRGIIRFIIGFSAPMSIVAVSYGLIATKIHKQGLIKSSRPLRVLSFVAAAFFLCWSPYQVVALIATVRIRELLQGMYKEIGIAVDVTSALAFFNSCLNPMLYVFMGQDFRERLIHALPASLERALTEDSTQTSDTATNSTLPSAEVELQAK", "test": "cell-based", "format": "binding"}, "[1]": {"test_system": "neutrophil-like differentiated HL-60 cells (dHL-60)", "format": "cell-based, human", "settings": "CV peptides 10 μM, n = 3–5"}, "[2]": {"test_system": "ERK1/2 phosphorylation via FPR1", "test": "ERK1/2 phosphorylation assay in FPR1-transfected HEK293T cells", "format": "cell-based, human", "settings": "MPR peptide 10 μM, 15 min", "method": "300.000 cells were seeded in each well of an uncoated 12-well plate. After 30 min settling time on ice, cells were treated with the respective stimulants and incubated at 37°C, 5% CO2 for 15 min. Cells were subsequently washed with 500 μL PBS and then lysed with 250 μL protein extraction buffer (50 mM Tris-HCl pH 8.0, 5 mM EDTA, 150 mM NaCl, 0.5% [v/v] Triton-X, 5 mM DTT, Roche complete protease inhibitor) for 5 min on ice. Lysates were then placed into protein low bind tubes (Eppendorf) and treated for 20 min in an ultrasonic bath. Samples were centrifuged at 4°C, 12.000 rpm for 20 min to remove debris. Supernatants were collected and stored at −20°C until further use. Protein concentrations were determined using ROTINanoquant in a F[…] multimode reader. Samples were mixed with LDS sample buffer and NuPAGE reduction agent and subsequently heated at 70°C for 10 min 20 μg of each sample were loaded onto a 10% Bis-Tris gel. SDS-PAGE was performed at […] for 40 min. Proteins were blotted onto nitrocellulose membranes using a Wet Tank blotting system at 350 mA for 60 min. Transfer was controlled by Ponceau S staining. Membranes were then blocked with 3% BSA and 0.1% Tween 20 in PBS (PBST) for 60 min. […] Detection of luminescence signals was performed with ECL Prime Kit in a LumiImager. […] Signals of actin staining were measured as described above. […]"}, "[3]": {"test_system": "human polymorphonuclear granulocytes (PMN; neutrophils)", "format": "cell-based", "settings": "mix at 3 μM, 1 μM, 0.3 μM; MPR peptide 10 μM co-applied, n = 3"}, "[4]": {"test_system": "MMP-9 release of isolated PMNs", "format": "cell-based, human", "settings": "activator mix 3 μM with MPR peptide, n = 5"}}, "note": "“Also recorded” adds a separate entry of the source. Peptide text beside a SMILES is read from it."}
{"compound": "F2L: acetylated 21mer N-terminal cleavage product of heme-binding-protein-1", "values": [{"measurement": "concentrations that activate FPR3", "setting": "FPR3", "result": "low nanomolar"}, {"measurement": "concentrations that activate FPR2", "setting": "FPR2", "result": "low micromolar"}]}
{"compound": "CSCC[C@H](N)C(=O)N[C@@H](Cc1ccc(O)cc1)C(=O)N[C@H](C(=O)N[C@@H](CCCCN)C(=O)N[C@@H](Cc1c[nH]c2ccccc12)C(=O)N1CCC[C@H]1C(=O)N[C@@H](Cc1c[nH]c2ccccc12)C(=O)N[C@@H](Cc1ccc(O)cc1)C(=O)N[C@H](C(=O)N[C@@H](Cc1c[nH]c2ccccc12)C(=O)N[C@@H](CC(C)C)C(=O)O)C(C)C)C(C)C", "note": "[CV2*] (H-MYVKWPWYVWL-OH; N-terminus and C-terminus assumed)", "values": [{"measurement": "calcium levels in FPR2 transfected cells", "setting": "human FPR2", "result": "strongest"}, {"measurement": "calcium response of FPR3-transfected cells", "setting": "human FPR3", "result": "responded; also recorded: strongest; also recorded: FPR3 activation"}, {"measurement": "neutrophil migration", "setting": "neutrophils; MPR peptide 10 μM, 90 min, n = 3-5", "result": "triggers"}, {"measurement": "binding affinity for FPR1, FPR2, and FPR3, fold lower than the other MPR peptides", "setting": "FPR1", "result": "approximately 10 fold"}, {"measurement": "calcium signal in dHL-60 cells", "setting": "[1]", "result": "positive calcium flux"}, {"measurement": "ERK signaling via FPR1", "setting": "[2]", "result": "triggers"}]}
{"compound": "CC[C@H](C)[C@H](NC(=O)[C@H](Cc1ccc(O)cc1)NC(=O)[C@@H](NC(=O)[C@@H](N)CCC(=O)O)[C@@H](C)O)C(=O)N[C@@H](CCCCN)C(=O)N[C@@H](Cc1c[nH]c2ccccc12)C(=O)N1CCC[C@H]1C(=O)N[C@@H](Cc1c[nH]c2ccccc12)C(=O)N[C@@H](Cc1c[nH]c2ccccc12)C(=O)N[C@H](C(=O)N[C@@H](Cc1c[nH]c2ccccc12)C(=O)N[C@@H](CC(C)C)C(=O)O)C(C)C", "note": "[CV1]", "values": [{"measurement": "inhibition of the migratory response to the activator peptide mix", "setting": "neutrophils; MPR peptide 10 μM co-applied, n = 5", "result": "near complete inhibition"}, {"measurement": "effect on activator-mix-induced calcium flux in neutrophils", "setting": "[3]", "result": "calcium flux suppression"}, {"measurement": "effect on activator-mix-triggered MMP-9 release", "setting": "[4]", "result": "attenuated"}]}
